Experimental data from patent US20110046191A1, “COMBINATION OF A MUSCARINIC RECEPTOR ANTAGONIST AND A BETA-2-ADRENOCEPTOR AGONIST” (ARGENTA DISCOVERY LTD., priority 2007, published 2011).
Read-outs that look alike come from different tables or passages of the source.

Key:
[1] = system: isolated guinea-pig tracheal rings precontracted with methacholine; experiment: Isolated tracheal rings from guinea-pig preconstricted with methacholine; assay type: cell-based; conditions: for inhibition at 0.001 µM: Cavia porcellus, read-out: % inhibition of 1 μM Methacholine induced tone; for % inhibition of 1 μM Methacholine induced tone: Formoterol 1 nM, Compound A or B 10 nM
Experimental: Evaluation of Compound Activity on Isolated Tracheal Rings from Guinea-Pig Preconstricted with Methacholine. […] Male albino Dunkin Hartley guinea-pigs (300-350 g) were killed by cervical dislocation and the trachea excised. Adherent connective tissue was removed and the trachea cut into ring segments (2-3 mm wide). These were suspended in 10 mL organ baths containing a modified Krebs solution composition (mM): NaCl 117.56, KCl 5.36, NaH2PO4 1.15, MgSO4 1.18, glucose 11.10, NaHCO3 25.00 and CaCl2 2.55. […] The tracheal rings were suspended between two stainless steel hooks, one attached to an isometric force transducer and the other to a stationary support in the organ bath. Changes in isometric force were recorded. Acetyl-β-methylcholine chloride (Methacholine), Indomethacin, Corticosterone-21-acetate, Phentolamine hydrochloride, Ascorbic acid, CGP20712A methanesulphate were obtained from the Sigma Chemical Company. […] At the beginning of each experiment a force of 1.0 g·wt. was applied to the tissues and this was reinstated over a 30 min equilibration period until it remained steady. […] Tissues were washed by exchanging the bathing Krebs solution three times. […] Data were collected using the ADInstruments Chart5 for windows software, the tension generated was measured before addition of methacholine and after its response had reached plateau. […] All responses were expressed as percentage inhibition of the methacholine-induced contraction. The results are depicted in FIG. 6 and Table 2, wherein compound A is (MA2). […] Tissues were washed by exchanging the bathing Krebs solution three times. […] Data were collected using the ADInstruments Chart5 for windows software, the tension generated was measured before addition of methacholine and after its response had reached plateau. […] All responses were expressed as percentage inhibition of the methacholine-induced contraction. The results are depicted in FIG. 7 and Table 3, wherein compound B is (MA11).

[2] = biological target: T1, human muscarinic receptors (M3) (Homo sapiens, UniProt P20309); experiment: Muscarinic Receptor Radioligand Binding Assay ([3H]-NMS); conditions: membranes expressing human M3
T1 construct: purchased
Experimental: The inhibitory effects of compounds of the muscarinic antagonists were determined by a Muscarinic Receptor Radioligand Binding Assay.
Radioligand binding studies utilising [^3H]-N-methyl scopolamine ([^3H]-NMS) and commercially available cell membranes expressing the human muscarinic receptors (M2 or M3) were used to assess the affinity of muscarinic antagonists for M2 and M3 receptors. Membranes in TRIS buffer were incubated in 96-well plates with [^3H]-NMS and M3 antagonist at various concentrations for 3 hours. Membranes and bound radioligand were then harvested by filtration and allowed to dry overnight. Scintillation fluid was then added and the bound radioligand counted using a Canberra Packard Topcount scintillation counter

[3] = Gravimetric vapour sorption (GVS); assay type: physicochemical; conditions: at 80% RH, ambient temperature
Experimental: GVS profiles were measured using a Dynamic Vapour Sorption DVS-1 instrument. The solid sample ca. 1-5 mg was placed into a glass vessel and the weight of the sample was recorded during a dual cycle step method (40 to 90 to 0 to 90 to 0% relative humidity (RH), in steps of 10% RH). GVS profiles were recorded at ambient temperature.

[4] = system: Methacholine-induced bronchoconstriction in the guinea pig; experiment: Lung function in anaesthetised guinea pigs: methacholine-induced bronchoconstriction; assay type: in vivo; conditions: after 5 μg/kg methacholine i.v.
Experimental: Evaluation of Lung Function in Anaesthetised Guinea Pigs.
Male Dunkin-Hartley guinea pigs (300-600 g) were weighed and dosed with vehicle (0.05M phosphate, 0.1% Tween 80, 0.6% saline, pH 6) or compound via the intratracheal route under recoverable gaseous anaesthesia (5% halothane in oxygen). Animals were dosed with compound or vehicle two hours prior to the administration of methacholine. Guinea pigs were anaesthetised with pentobarbitone (1 mL/kg of 60 mg/mL solution i.p.) approximately 30 minutes prior to the first bronchoconstrictor administration. The trachea was cannulated and the animal ventilated using a constant volume respiratory pump (Harvard Rodent Ventilator model 683) at a rate of 60 breath/min and a tidal volume of 5 mL/kg. A jugular vein was cannulated for the administration of methacholine or maintenance anaesthetic (0.1 mL of pentobarbitone solution, 60 mg/mL, as required).
The animals were transferred to a Flexivent System (SCIREQ, Montreal, Canada) in order to measure airway resistance. The animals were ventilated (quasi-sinusoidal ventilation pattern) at 60 breaths/min at a tidal volume of 5 mL/kg. A positive end expiratory pressure of 2-3 cm H2O was applied. Respiratory resistance was measured using the Flexivent “snapshot” facility (1 second duration, 1 Hz frequency). Once a stable baseline resistance value had been obtained the animals were given methacholine in ascending doses (0.5, 1, 2, 3 and 5 μg/kg, i.v) at approximately 4-minute intervals via the jugular catheter. After each administration of bronchoconstrictor the peak resistance value was recorded. Guinea pigs were euthanised with approximately 1.0 mL pentobarbitone sodium (Euthatal) intravenously after the completion of the lung function measurements.
Percentage bronchoprotection produced by a compound was calculated at each dose of brochoconstrictor as follows:
Where % change Rveh is the mean of the maximum percentage change in airway resistance in the vehicle treated group. The results reported were measured after 5 μg/kg methacholine and were expressed as percentage bronchoprotection (mean±s.e.mean).
Guinea pigs were dosed with vehicle, 3 and 27 μg/kg compound (BA1), 0.2 μg/kg compound (MA2) (Crystalline Form A) or a combination of 3 μg/kg Compound (BA1) and 0.2 μg/kg Compound (MA2) via the intratracheal route. Administration of increasing intravenous doses of methacholine (0.5, 1, 2, 3 and 5 μg/kg) evoked dose-related bronchoconstriction in the vehicle treated animals ranging from 13±2.6% at 0.5 μg/kg to 2530±280% at 5 μg/kg two hours after vehicle administration (n=9).
[…] Administration of increasing intravenous doses of methacholine (0.5, 1, 2, 3 and 5 μg/kg) evoked dose-related bronchoconstriction in the vehicle treated animals ranging from 14±2.6% at 0.5 μg/kg to 2240±269% at 5 μg/kg two hours after vehicle administration (n=10).

[5] = MA2 0.2 μg/kg intratracheal, 2 hours prior to methacholine
[6] = MA11 at 0.2 μg/kg intratracheal

T1 sequence (P20309 whole entry): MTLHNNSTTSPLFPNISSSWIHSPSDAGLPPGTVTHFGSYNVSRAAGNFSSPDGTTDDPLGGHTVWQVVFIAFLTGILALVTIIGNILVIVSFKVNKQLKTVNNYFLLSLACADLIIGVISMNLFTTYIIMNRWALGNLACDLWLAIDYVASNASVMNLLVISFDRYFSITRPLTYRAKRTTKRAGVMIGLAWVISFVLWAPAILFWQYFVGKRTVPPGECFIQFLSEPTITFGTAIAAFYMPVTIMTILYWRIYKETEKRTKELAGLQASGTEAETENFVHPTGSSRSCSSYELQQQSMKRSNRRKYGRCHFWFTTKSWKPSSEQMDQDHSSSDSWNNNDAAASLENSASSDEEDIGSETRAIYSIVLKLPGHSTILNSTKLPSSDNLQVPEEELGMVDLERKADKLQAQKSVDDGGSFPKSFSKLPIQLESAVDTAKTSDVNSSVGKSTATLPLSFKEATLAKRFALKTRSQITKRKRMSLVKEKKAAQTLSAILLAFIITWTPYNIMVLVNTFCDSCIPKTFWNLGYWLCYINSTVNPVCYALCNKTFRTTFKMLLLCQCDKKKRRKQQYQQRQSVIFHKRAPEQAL

Structure (SMILES): COc1ccc(CC(C)NCC(O)c2ccc(O)c(NC=O)c2)cc1 (centres unmarked) [Formoterol, N-[2-hydroxy-5-[(1)-1-hydroxy-2-[[(1)-2-(4-methoxyphenyl)-1-methylethyl]amino]ethyl]phenyl]-formamide, reference compound]
- inhibition at 0.001 µM ([1]; 10 min): 21%
- inhibition at 0.001 µM ([1]; 20 min): 37%
- inhibition at 0.001 µM ([1]; 0.5 h): 41%
- inhibition at 0.001 µM ([1]; 40 min): 42%
- inhibition at 0.001 µM ([1]; 50 min): 44%

Structure (SMILES): C[N+](C)(CCCOc1ccccc1)Cc1cnc([C@@](O)(c2ccccc2)C2CCCCC2)o1 [MA1, [2-((S)-Cyclohexyl-hydroxy-phenyl-methyl)-oxazol-5-ylmethyl]-dimethyl-(3-phenoxy-propyl)-ammonium bromide]
- Ki [2]: 9.4 nM

Structure (SMILES): C[N+](C)(CCCOc1ccccc1)Cc1cnc([C@](O)(c2ccccc2)C2CCCCC2)o1.[Br-] [MA2 Crystalline Form A, [2-((R)-Cyclohexyl-hydroxy-phenyl-methyl)-oxazol-5-ylmethyl]-dimethyl-(3-phenoxy-propyl)-ammonium bromide]
- GVS weight increase [3]: 0.8 % w/w

Structure (SMILES): C[N+](C)(CCCOc1ccccc1)Cc1cnc([C@](O)(c2ccccc2)C2CCCCC2)o1.[Br-] [MA2, [2-((R)-Cyclohexyl-hydroxy-phenyl-methyl)-oxazol-5-ylmethyl]-dimethyl-(3-phenoxy-propyl)-ammonium bromide]
- Ki [2]: 0.2 nM
- % inhibition of 1 μM Methacholine induced tone ([1]; 10 min): 23%
- % inhibition of 1 μM Methacholine induced tone ([1]; 20 min): 62%
- % inhibition of 1 μM Methacholine induced tone ([1]; 30 min): 94%
- % inhibition of 1 μM Methacholine induced tone ([1]; 40 min): 104%
- % inhibition of 1 μM Methacholine induced tone ([1]; 50 min): 106%
- increase in resistance [4, 5]: 2210±268%
- inhibition of methacholine-induced bronchoconstriction [4, 5]: 13%

Structure (SMILES): C[N+](C)(CCOCCc1ccccc1)Cc1cnc([C@](O)(c2ccccc2)C2CCCCC2)o1 [MA3, [2-((R)-Cyclohexyl-hydroxy-phenyl-methyl)-oxazol-5-ylmethyl]-dimethyl-(2-phenethyloxy-ethyl)-ammonium bromide]
- Ki [2]: 0.6 nM

Structure (SMILES): C[N+](C)(CCCOc1ccc(Cl)c(Cl)c1)Cc1cnc([C@](O)(c2ccccc2)C2CCCCC2)o1 [MA4, [2-((R)-Cyclohexyl-hydroxy-phenyl-methyl)-oxazol-5-ylmethyl]-[3-(3,4-dichloro-phenoxy)-propyl]-dimethyl-ammonium bromide]
- Ki [2]: 0.9 nM

Structure (SMILES): C[N+](C)(CCOCc1ccc(Cl)c(Cl)c1)Cc1cnc([C@](O)(c2ccccc2)C2CCCCC2)o1 [MA5, [2-((R)-Cyclohexyl-hydroxy-phenyl-methyl)-oxazol-5-ylmethyl]-[2-(3,4-dichloro-benzyloxy)-ethyl]-dimethyl-ammonium bromide]
- Ki [2]: 2.1 nM

Structure (SMILES): C[N+](C)(CCOCc1ccc(Cl)cc1)Cc1cnc([C@](O)(c2ccccc2)C2CCCCC2)o1 [MA6, [2-(4-chloro-benzyloxy)-ethyl]-[2-((R)-cyclohexyl-hydroxy-phenyl-methyl)-oxazol-5-ylmethyl]-dimethyl-ammonium bromide]
- Ki [2]: 0.6 nM

Structure (SMILES): C[N+](C)(CCCOc1ccccc1)Cc1cnc([C@](O)(c2ccccc2)C2CCCCC2)o1 [MA7 Form 1, [2-((R)-Cyclohexyl-hydroxy-phenyl-methyl)-oxazol-5-ylmethyl]-dimethyl-(3-phenoxy-propyl)-ammonium hemi-naphthalene-1,5-disulfonate]
- GVS weight increase [3]: 3.1 % w/w

Structure (SMILES): C[N+](C)(CCCOc1ccccc1)Cc1cnc([C@](O)(c2ccccc2)C2CCCCC2)o1 [MA7 Form 2, [2-((R)-Cyclohexyl-hydroxy-phenyl-methyl)-oxazol-5-ylmethyl]-dimethyl-(3-phenoxy-propyl)-ammonium hemi-naphthalene-1,5-disulfonate]
- GVS weight increase [3]: 0.7 % w/w

Structure (SMILES): C[N+](C)(CCCOc1ccccc1)Cc1cnc([C@](O)(c2ccccc2)C2CCCCC2)o1 [MA7 Form 3, [2-((R)-Cyclohexyl-hydroxy-phenyl-methyl)-oxazol-5-ylmethyl]-dimethyl-(3-phenoxy-propyl)-ammonium hemi-naphthalene-1,5-disulfonate]
- GVS weight increase [3]: 3.0 % w/w

Structure (SMILES): C[N+](C)(CCOCc1ccc(Cl)cc1)Cc1cnc([C@](O)(c2ccccc2)C2CCCCC2)o1 [MA11, [2-(4-chloro-benzyloxy)-ethyl]-[2-((R)-cyclohexyl-hydroxy-phenyl-methyl)-oxazol-5-ylmethyl]-dimethyl-ammonium hemi-naphthalene-1,5-disulfonate]
- % inhibition of 1 μM Methacholine induced tone ([1]; 10 min): 11%
- % inhibition of 1 μM Methacholine induced tone ([1]; 20 min): 29%
- % inhibition of 1 μM Methacholine induced tone ([1]; 30 min): 49%
- % inhibition of 1 μM Methacholine induced tone ([1]; 40 min): 67%
- % inhibition of 1 μM Methacholine induced tone ([1]; 50 min): 84%
- increase in resistance [4, 6]: 1880±272%
- inhibition of methacholine-induced bronchoconstriction [4, 6]: 16%
